Assay results: patent US20260327221A1, “INHIBITORS OF CYCLIC GMP-AMP SYNTHASE AND USES THEREOF” (Ventus Therapeutics U.S., Inc., priority 2023, published 2026)
Read-outs that look alike come from different tables or passages of the source.

Target: hcGAS (Homo sapiens, UniProt Q8N884)
Experiment: hcGAS LCMS assay (direct measurement of cGAMP production by LC/MS)
Type: biochemical
Experimental: cGAS catalyzes the cyclization of ATP and GTP to produce cGAMP, which is the activating ligand of STING. Human cGAS (hcGAS) inhibition can thus be quantified by measuring how much cGAMP is formed either indirectly, by monitoring ATP-depletion as in the hcGAS Kinase-Glo assay (as described below), or directly, such as using the hcGAS LCMS assay (as described below).
2. hGAS LCMS Assay Conditions
Compounds were tested for their hcGAS inhibition activity using direct measurement of cGAMP production by LC/MS. Briefly, compounds were incubated with enzyme and substrates for 4 hours (see Table C), before the reaction was stopped with 3 volumes of 70/30 Acetonitrile/H2O mix containing 0.15 uM cGAMP-^13C10^15N5 as internal standard and mixed for 5 mmn. After centrifugation (3700 rpm, […], […]), 100 uL of each reaction was collected and mixed to equal volume of acetonitrile (MeCN). Samples were then analyzed on Qexactive (Column: XBridge BEH Amide Column, 130 Å, 3.5 μm, 3 mm×50 mm. Mobile phase A: 10 mM Ammonium acetate in 95/5 H2O/MeCN (0.5% DMSO), Mobile phase B: MeCN (0.5% DMSO).
The results of the assay, expressed as IC50 values, are reported in Table D with the following designations: A represents an IC50 value <0.005 μM (with A1 representing an IC50 value <0.0005 μM, A2 representing an IC50 value ≥0.0005 μM and <0.001 μM, and A3 representing an IC50 value ≥0.001 μM and <0.005 μM); B represents an IC50 value ≥0.005 μM and <0.02 μM; C represents an IC50 value ≥0.02 μM and <0.06 μM; and D represents an IC50 value ≥0.06 μM.

[1] = 4 h incubation with enzyme and substrates, cGAMP production by LC/MS, class symbols, read-out: hcGAS LCMS IC50

hcGAS, sequence (Q8N884 whole entry): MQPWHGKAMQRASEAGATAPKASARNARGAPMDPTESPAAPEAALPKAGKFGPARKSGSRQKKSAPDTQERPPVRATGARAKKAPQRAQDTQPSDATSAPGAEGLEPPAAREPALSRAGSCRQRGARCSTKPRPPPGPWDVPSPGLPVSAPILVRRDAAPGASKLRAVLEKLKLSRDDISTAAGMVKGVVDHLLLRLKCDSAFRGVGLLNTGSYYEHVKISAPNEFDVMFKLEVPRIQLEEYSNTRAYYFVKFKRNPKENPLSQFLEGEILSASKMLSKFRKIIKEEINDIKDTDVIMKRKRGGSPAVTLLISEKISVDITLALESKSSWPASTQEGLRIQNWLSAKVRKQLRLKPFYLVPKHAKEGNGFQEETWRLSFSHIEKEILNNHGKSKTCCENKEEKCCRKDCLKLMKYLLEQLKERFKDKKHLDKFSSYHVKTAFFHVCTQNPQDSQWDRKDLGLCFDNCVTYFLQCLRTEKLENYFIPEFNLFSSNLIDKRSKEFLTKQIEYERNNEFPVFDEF

SMILES | IC50 [1] [nM] | IC50 (hcGAS 0.5 nM, ATP 100 μM, GTP 100 μM, dsDNA 25 nM, pH 7.4, 4 h incubation, read-out: hcGAS inhibition IC50 (activity class, Table D)) [nM]
COCC(CN1CCSCC1)Oc1c(-c2c(OC)cccc2OC)cc(C(=O)Nc2nnc(-n3nccc3N)s2)oc1=O (centres unmarked) [78A*/78B*] | 5 to 20 | 
COc1cccc(OC)c1-c1cc(C(=O)Nc2nnc(-n3nccc3N)s2)oc(=O)c1OC[C@H](CO)N1CCSCC1 [79B*, (S)-N-(5-(5-amino-1H-pyrazol-1-yl)-1,3,4-thiadiazol-2-yl)-4-(2,6-dimethoxyphenyl)-3-(3-hydroxy-2-thiomorpholinopropoxy)-2-oxo-2H-pyran-6-carboxamide] | 1 to 5 | 
COc1cccc(OC)c1-c1cc(C(=O)Nc2nnc(-n3nccc3N)s2)oc(=O)c1O[C@H](CO)CN1CCSCC1 [81A*, (S)-N-(5-(5-amino-1H-pyrazol-1-yl)-1,3,4-thiadiazol-2-yl)-4-(2,6-dimethoxyphenyl)-3-((1-hydroxy-3-thiomorpholinopropan-2-yl)oxy)-2-oxo-2H-pyran-6-carboxamide] | 1 to 5 | 
COc1cccc(OC)c1-c1cc(C(=O)Nc2nnc(-n3nccc3N)s2)oc(=O)c1O[C@@H](CO)CN1CCSCC1 [81B*, (R)-N-(5-(5-amino-1H-pyrazol-1-yl)-1,3,4-thiadiazol-2-yl)-4-(2,6-dimethoxyphenyl)-3-((1-hydroxy-3-thiomorpholinopropan-2-yl)oxy)-2-oxo-2H-pyran-6-carboxamide] | 1 to 5 | 
COc1cccc(OC)c1-c1cc(C(=O)Nc2nnc(-n3nccc3N)s2)oc(=O)c1OCCN1CCO[C@H](CSC)C1 [82A*, (S)-N-(5-(5-amino-1H-pyrazol-1-yl)-1,3,4-thiadiazol-2-yl)-4-(2,6-dimethoxyphenyl)-3-(2-(2-((methylthio)methyl)morpholino)ethoxy)-2-oxo-2H-pyran-6-carboxamide] | 1 to 5 | 
COCC(CN1CCOCC1)Oc1c(-c2c(OC)cccc2OC)cc(C(=O)Nc2nnc(-n3nccc3N)s2)oc1=O (centres unmarked) [84A*/84B*] | 5 to 20 | 
COC[C@H](CO)COc1c(-c2c(OC)cccc2OC)cc(C(=O)Nc2nnc(-n3nccc3N)s2)oc1=O [92B*, (S)-N-(5-(5-amino-1H-pyrazol-1-yl)-1,3,4-thiadiazol-2-yl)-4-(2,6-dimethoxyphenyl)-3-(3-hydroxy-2-(methoxymethyl)propoxy)-2-oxo-2H-pyran-6-carboxamide] | 1 to 5 | 
COc1cccc(OC)c1-c1cc(C(=O)Nc2nnc(-n3nccc3N)s2)oc(=O)c1OCCN1CCSCC1CO (centres unmarked) [96A*/96B*] | 1 to 5 | 
COc1cccc(OC)c1-c1cc(C(=O)Nc2nnc(-n3nccc3N)s2)oc(=O)c1OCC1(OC)CCC(O)CC1 (centres unmarked) [99A*/99B*] | 1 to 5 | 
COc1cccc(OC)c1-c1cc(C(=O)Nc2nnc(-n3nccc3N)s2)oc(=O)c1OCCN1CCSC(CO)C1 (centres unmarked) [100A*/100B*] | 1 to 5 | 
COc1cccc(OC)c1-c1cc(C(=O)Nc2nnc(-n3nccc3N)s2)oc(=O)c1OCCOC1CC(O)C1 (centres unmarked) [102A*, N-(5-(5-amino-1H-pyrazol-1-yl)-1,3,4-thiadiazol-2-yl)-4-(2,6-dimethoxyphenyl)-3-(2-((1s,3s)-3-hydroxycyclobutoxy)ethoxy)-2-oxo-2H-pyran-6-carboxamide] | 0.5 to 1 | 
COc1cccc(OC)c1-c1cc(C(=O)Nc2nnc(-n3nccc3N)s2)oc(=O)c1O[C@H](CO)C1CC1 [106A*, (S)-N-(5-(5-amino-1H-pyrazol-1yl)-1,3,4-thiadiazol-2-yl)-3-(1-cyclopropyl-2-hydroxyethoxy)-4-(2,6-dimethoxyphenyl)-2-oxo-2H-pyran-6-carboxamide] | 1 to 5 | 
COc1cccc(OC)c1-c1cc(C(=O)Nc2nnc(-n3nccc3N)s2)oc(=O)c1O[C@@H](CO)C1CC1 [106B*, (R)-N-(5-(5-amino-1H-pyrazol-1-yl)-1,3,4-thiadiazol-2-yl)-3-(1-cyclopropyl-2-hydroxyethoxy)-4-(2,6-dimethoxyphenyl)-2-oxo-2H-pyran-6-carboxamide] | 1 to 5 | 
COc1c(-c2ccccc2S(C)(=O)=O)cc(C(=O)Nc2nnc(-n3nccc3C)s2)oc1=O [Compound 2, 3-methoxy-N-(5-(5-methyl-1H-pyrazol-1-yl)-1,3,4-thiadiazol-2-yl)-4-(2-(methylsulfonyl)phenyl)-2-oxo-2H-pyran-6-carboxamide] | 5 to 20 | 
COc1c(-c2ccccc2P(C)(C)=O)cc(C(=O)Nc2nnc(-n3nccc3C)s2)oc1=O [Compound 3, 4-(2-(dimethylphosphoryl)phenyl)-3-methoxy-N-(5-(5-methyl-1H-pyrazol-1-yl)-1,3,4-thiadiazol-2-yl)-2-oxo-2H-pyran-6-carboxamide] | 20 to 60 | 
COCCOc1c(-c2ncccc2OC)cc(C(=O)Nc2nnc(-n3nccc3C)s2)oc1=O [Compound 4, 3-(2-methoxyethoxy)-4-(3-methoxypyridin-2-yl)-N-(5-(5-methyl-1H-pyrazol-1-yl)-1,3,4-thiadiazol-2-yl)-2-oxo-2H-pyran-6-carboxamide] | 5 to 20 | 

The next lines start with the values.

IC50 [1] [nM] | IC50 (hcGAS 0.5 nM, ATP 100 μM, GTP 100 μM, dsDNA 25 nM, pH 7.4, 4 h incubation, read-out: hcGAS inhibition IC50 (activity class, Table D)) [nM] | SMILES
0.5 to 1 |  | COc1cccc(OC)c1-c1cc(C(=O)Nc2nnc(-n3nccc3N)s2)oc(=O)c1OC[C@@H]1CCCO1 [56A*, (S)-N-(5-(5-amino-1H-pyrazol-1-yl)-1,3,4-thiadiazol-2-yl)-4-(2,6-dimethoxyphenyl)-2-oxo-3-((tetrahydrofuran-2-yl)methoxy)-2H-pyran-6-carboxamide]
0.5 to 1 |  | COc1cccc(OC)c1-c1cc(C(=O)Nc2nnc(-n3nccc3N)s2)oc(=O)c1OC[C@H]1CCCO1 [56B*, (R)-N-(5-(5-amino-1H-pyrazol-1-yl)-1,3,4-thiadiazol-2-yl)-4-(2,6-dimethoxyphenyl)-2-oxo-3-((tetrahydrofuran-2-yl)methoxy)-2H-pyran-6-carboxamide]
1 to 5 |  | COc1cccc(OC)c1-c1cc(C(=O)Nc2nnc(-n3nccc3N)s2)oc(=O)c1OC[C@@H](CO)N1CCSCC1 [79A*, (R)-N-(5-(5-amino-1H-pyrazol-1-yl)-1,3,4-thiadiazol-2-yl)-4-(2,6-dimethoxyphenyl)-3-(3-hydroxy-2-thiomorpholinopropoxy)-2-oxo-2H-pyran-6-carboxamide]
0.5 to 1 |  | COc1cccc(OC)c1-c1cc(C(=O)Nc2nnc(-n3nccc3N)s2)oc(=O)c1OCCN1CCO[C@@H](CSC)C1 [82B*, (R)-N-(5-(5-amino-1H-pyrazol-1-yl)-1,3,4-thiadiazol-2-yl)-4-(2,6-dimethoxyphenyl)-3-(2-(2-((methylthio)methyl)morpholino)ethoxy)-2-oxo-2H-pyran-6-carboxamide]
0.5 to 1 |  | COc1cccc(OC)c1-c1cc(C(=O)Nc2nnc(-n3nccc3N)s2)oc(=O)c1OCC1CSCCO1 (centres unmarked) [83A*/83B*]
0.5 to 1 |  | COc1cccc(OC)c1-c1cc(C(=O)Nc2nnc(-n3nccc3N)s2)oc(=O)c1OCC(O)CN1CCSCC1 (centres unmarked) [91A*/91B*]
0.5 to 1 |  | COC[C@@H](CO)COc1c(-c2c(OC)cccc2OC)cc(C(=O)Nc2nnc(-n3nccc3N)s2)oc1=O [92A*, (R)-N-(5-(5-amino-1H-pyrazol-1-yl)-1,3,4-thiadiazol-2-yl)-4-(2,6-dimethoxyphenyl)-3-(3-hydroxy-2-(methoxymethyl)propoxy)-2-oxo-2H-pyran-6-carboxamide]
0.5 to 1 |  | COc1cccc(OC)c1-c1cc(C(=O)Nc2nnc(-n3nccc3N)s2)oc(=O)c1OCCN1C[C@@H]2C[C@H]1CS2 [93A*, 3-(2-((1S,4S)-2-thia-5-azabicyclo[2.2.1]heptan-5-yl)ethoxy)-N-(5-(5-amino-1H-pyrazol-1-yl)-1,3,4-thiadiazol-2-yl)-4-(2,6-dimethoxyphenyl)-2-oxo-2H-pyran-6-carboxamide]
0.5 to 1 |  | COc1cccc(OC)c1-c1cc(C(=O)Nc2nnc(-n3nccc3N)s2)oc(=O)c1OCCN1C[C@H]2C[C@@H]1CS2 [93B*, 3-(2-((1R,4R)-2-thia-5-azabicyclo[2.2.1]heptan-5-yl)ethoxy)-N-(5-(5-amino-1H-pyrazol-1-yl)-1,3,4-thiadiazol-2-yl)-4-(2,6-dimethoxyphenyl)-2-oxo-2H-pyran-6-carboxamide]
0.5 to 1 | 0.5 to 1 | COc1c(-c2ccccc2C#N)cc(C(=O)Nc2nnc(-n3nccc3C)s2)oc1=O [Compound 1, 4-(2-cyanophenyl)-3-methoxy-N-(5-(5-methyl-1H-pyrazol-1-yl)-1,3,4-thiadiazol-2-yl)-2-oxo-2H-pyran-6-carboxamide]
< 0.5 |  | COCCOc1c(-c2c(OC)cccc2OC)cc(C(=O)Nc2nnc(-c3c(Cl)ccn3C)s2)oc1=O [Compound 5, N-(5-(3-chloro-1-methyl-1H-pyrrol-2-yl)-1,3,4-thiadiazol-2-yl)-4-(2,6-dimethoxyphenyl)-3-(2-methoxyethoxy)-2-oxo-2H-pyran-6-carboxamide]
0.5 to 1 |  | COCCOc1c(-c2c(OC)cccc2OC)cc(C(=O)Nc2nnc(-n3nccc3N)s2)oc1=O [Compound 6, N-(5-(5-amino-1H-pyrazol-1-yl)-1,3,4-thiadiazol-2-yl)-4-(2,6-dimethoxyphenyl)-3-(2-methoxyethoxy)-2-oxo-2H-pyran-6-carboxamide]
